Measurements reported in ChEMBL document CHEMBL6134830, “Naturally inspired chimeric quinolone derivatives to reverse bacterial drug resistance” (Eur J Med Chem, 2025).
≈ marks a conversion by molar mass, not a printed value. Calls of active or inactive are those of the source. The calls are words filed in the database; no cut-off is given here.

How the values were obtained:
Enterococcus faecalis = experiment: Antimicrobial activity against Enterococcus faecalis ATCC 19433 assessed as inhibition of bacterial growth measured after 20 hrs by CLSI protocol based Muller Hinton broth assay; format: functional
[1] = Hemolytic activity in Sprague-Dawley rat Red blood cells at 200 ug/ml incubated for 1 hr by absorbance based analysis; format: toxicity, cell-based; details: erythrocyte, dose 200 µg/ml
Cell membrane [2] = experiment: Disruption of cell membrane in methicillin-resistant Staphylococcus aureus assessed as PI-positive bacteria at 4 times MIC measured after 30 mins by PI staining based flow cytometry analysis (reference value: 7.49 %); format: subcellular
Staphylococcus aureus [3] = experiment: Antimicrobial activity against Methicillin-resistant Staphylococcus aureus ATCC 33591 measured after 5 to 25 passages at sub-MIC incubated for 12 hrs; format: functional, organism-based
[4] = Toxicity in ICR mouse assessed as pathological change in liver at 25 mg/kg, sc administered as single dose and measured at 2 hrs post-infection by H and E staining based analysis; format: organism-based; details: in vivo
Mus musculus [5] = experiment: Anti-inflammatory activity against subcutaneous abscess ICR mouse model infected with methicillin-resistant Staphylococcus aureus assessed as reduction in TNF-alpha level at 25 mg/kg, sc measured at 48 hrs post-injection by ELISA method; format: functional, organism-based
Staphylococcus aureus [6] = experiment: Antimicrobial activity against Methicillin-resistant Staphylococcus aureus ATCC 43300 assessed as inhibition of bacterial growth measured after 20 hrs by CLSI protocol based Muller Hinton broth assay; format: functional
[7] = Toxicity in ICR mouse assessed as pathological change in kidney at 25 mg/kg, sc administered as single dose and measured at 2 hrs post-infection by H and E staining based analysis; format: organism-based; details: in vivo
Staphylococcus aureus [8] = experiment: Antimicrobial activity against Methicillin-resistant Staphylococcus aureus assessed as reduction in bacterial load at 4 times MIC measured after 4 hrs by time-kill kinetics assay; format: functional
Staphylococcus aureus [9] = experiment: Antimicrobial activity against Methicillin-resistant Staphylococcus aureus assessed as reduction in bacterial growth at 4 times MIC measured after 8 hrs by time-kill kinetics assay relative to control; format: functional; design: scale not given: the % may be the effect or the level left
L929 = experiment: Cytotoxicity against mouse L929 cells assessed as reduction in cell viability at 100 microg/mL incubated for 24 hrs by MTT assay; format: toxicity, cell-based; details: l929, 24 h, dose 100 µg/ml
[10] = Toxicity in ICR mouse assessed as pathological change in spleen at 25 mg/kg, sc administered as single dose and measured at 2 hrs post-infection by H and E staining based analysis; format: organism-based; details: in vivo
Escherichia coli [11] = experiment: Antimicrobial activity against Escherichia coli ATCC 25922 assessed as inhibition of bacterial growth measured after 20 hrs by CLSI protocol based Muller Hinton broth assay; format: functional
Staphylococcus aureus [12] = experiment: Antimicrobial activity against Staphylococcus aureus ATCC 25923 assessed as inhibition of bacterial growth measured after 20 hrs by CLSI protocol based Muller Hinton broth assay; format: functional
Staphylococcus aureus [13] = experiment: Antibacterial activity against methicillin-resistant Staphylococcus aureus infected in ICR mouse model of subcutaneous abscess assessed as reduction in IL-6 level at 25 mg/kg, sc measured at 48 hrs post-injection by ELISA method; format: functional, organism-based
[14] = Toxicity in ICR mouse assessed as compatible skin at 25 mg/kg, sc administered as single dose and measured at 2 hrs post-infection by H and E staining based analysis; format: organism-based; details: in vivo
Staphylococcus aureus [15] = experiment: Antibacterial activity against methicillin-resistant Staphylococcus aureus infected in ICR mouse model of subcutaneous abscess assessed as bacterial elimation at 25 mg/kg, sc measured at 48 hrs post-injection relative to control; format: functional
[16] = Toxicity in ICR mouse assessed as pathological change in skin at 25 mg/kg, sc administered as single dose and measured at 2 hrs post-infection by H and E staining based analysis; format: organism-based; details: in vivo
Cell membrane [17] = experiment: Disruption of cell membrane in methicillin-resistant Staphylococcus aureus assessed as PI-positive bacteria at 8 times MIC measured after 30 mins by PI staining based flow cytometry analysis (reference value: 7.49 %); format: subcellular
Staphylococcus aureus [18] = experiment: Antibacterial activity against methicillin-resistant Staphylococcus aureus infected in ICR mouse model of subcutaneous abscess assessed as reduction in infiltration of inflammatory cells at 25 mg/kg, sc measured at 48 hrs post-injection by H and E/Masson staining based analysis; format: functional, organism-based
Staphylococcus aureus [19] = experiment: Antibacterial activity against methicillin-resistant Staphylococcus aureus infected in ICR mouse model of subcutaneous abscess assessed as effect on lesions at 25 mg/kg, sc measured at 48 hrs post-injection; format: functional, organism-based
[20] = Toxicity in ICR mouse assessed as pathological change in lung at 25 mg/kg, sc administered as single dose and measured at 2 hrs post-infection by H and E staining based analysis; format: organism-based; details: in vivo
[21] = Toxicity in ICR mouse assessed as pathological change in heart at 25 mg/kg, sc administered as single dose and measured at 2 hrs post-infection by H and E staining based analysis; format: organism-based; details: in vivo
Pseudomonas aeruginosa = experiment: Antimicrobial activity against Pseudomonas aeruginosa ATCC 27853 assessed as inhibition of bacterial growth measured after 20 hrs by CLSI protocol based Muller Hinton broth assay; format: functional
Mus musculus [22] = experiment: Anti-inflammatory activity against subcutaneous abscess ICR mouse model infected with methicillin-resistant Staphylococcus aureus assessed as reduction in IL-6 level at 25 mg/kg, sc measured at 48 hrs post-injection by ELISA method; format: functional, organism-based
Cell membrane [23] = experiment: Disruption of cell membrane in methicillin-resistant Staphylococcus aureus at 8 times MIC measured after 4 hrs by scanning electron microscopic analysis; format: subcellular
Escherichia coli [24] = experiment: Antimicrobial activity against Escherichia coli ATCC 25922 measured after 5 to 25 passages at sub-MIC incubated for 12 hrs; format: functional, organism-based
Cell membrane [25] = experiment: Disruption of cell membrane in methicillin-resistant Staphylococcus aureus assessed as PI-positive bacteria at 2 times MIC measured after 30 mins by PI staining based flow cytometry analysis (reference value: 7.49 %); format: subcellular
Cell membrane [26] = experiment: Disruption of cell membrane in methicillin-resistant Staphylococcus aureus at 4 times MIC measured after 4 hrs by scanning electron microscopic analysis; format: subcellular
Enterococcus gallinarum = experiment: Antimicrobial activity against Enterococcus gallinarum ATCC 49573 assessed as inhibition of bacterial growth measured after 20 hrs by CLSI protocol based Muller Hinton broth assay; format: functional
Acinetobacter baumannii = experiment: Antimicrobial activity against Acinetobacter baumannii ATCC 19606 assessed as inhibition of bacterial growth measured after 20 hrs by CLSI protocol based Muller Hinton broth assay; format: functional
Staphylococcus aureus [27] = experiment: Antibacterial activity against methicillin-resistant Staphylococcus aureus infected in ICR mouse model of subcutaneous abscess assessed as bacterial load at 25 mg/kg, sc measured at 48 hrs post-injection; format: functional
Staphylococcus aureus [28] = experiment: Antibacterial activity against methicillin-resistant Staphylococcus aureus infected in ICR mouse model of subcutaneous abscess assessed as effect on skin abscesses at 25 mg/kg, sc measured at 48 hrs post-injection; format: functional, organism-based
Staphylococcus aureus [29] = experiment: Antimicrobial activity against Methicillin-resistant Staphylococcus aureus assessed as reduction in bacterial growth at 4 times MIC measured for 0.5 to 24 hrs by time-kill kinetics assay; format: functional, organism-based; details: time 0.5-24 hrs

CCCCCCCCCNC(=O)[C@H](CCCCN)NC(=O)[C@H](CCCNC(=N)N)NC(=O)[C@H](CCCCN)NC(=O)c1ccc(C(=O)N2CCN(c3cc4c(cc3F)c(=O)c(C(=O)O)cn4C3CC3)CC2)cc1
MIC (Enterococcus faecalis): 12.5 µg/mL (≈ 12.3 µM) | Activity [1]: Non-toxic | Activity (Cell membrane [2]): 26.8% | Activity (Staphylococcus aureus [3]): Active | Activity [4]: Non-toxic | Activity (Mus musculus [5]): Active | MIC (Staphylococcus aureus [6]): 6.25 µg/mL (≈ 6.14 µM) | Activity [7]: Non-toxic | Activity (Staphylococcus aureus [8]): 3.6 log10CFU/ml | Activity (Staphylococcus aureus [9]): 100% | Activity (L929): Non-toxic | Activity [10]: Non-toxic | MIC (Escherichia coli [11]): 3.12 µg/mL (≈ 3.07 µM) | MIC (Staphylococcus aureus [12]): 1.56 µg/mL (≈ 1.53 µM) | Activity (Staphylococcus aureus [13]): Active | Activity [14]: Non-toxic | Activity (Staphylococcus aureus [15]): 99.99% | Activity [16]: Non-toxic | Activity (Cell membrane [17]): 58.4% | Activity (Staphylococcus aureus [18]): Active | Activity (Staphylococcus aureus [19]): Active | Activity [20]: Non-toxic | Activity [21]: Non-toxic | MIC (Pseudomonas aeruginosa): 3.12 µg/mL (≈ 3.07 µM) | Activity (Mus musculus [22]): Active | Activity (Cell membrane [23]): Active | Activity (Escherichia coli [24]): Active | Activity (Cell membrane [25]): 12% | Activity (Cell membrane [26]): Active | MIC (Enterococcus gallinarum): 12.5 µg/mL (≈ 12.3 µM) | MIC (Acinetobacter baumannii): 6.25 µg/mL (≈ 6.14 µM) | Activity (Staphylococcus aureus [27]): 4.4 log10CFU/ml

O=C(O)c1cn(C2CC2)c2cc(N3CCNCC3)c(F)cc2c1=O [CIPROFLOXACIN]
Activity (Staphylococcus aureus [28]): inactive | Activity (Mus musculus [5]): Active | Activity (Staphylococcus aureus [29]): inactive | Activity (L929): Non-toxic | Activity (Cell membrane [17]): 9.46% | Activity (Staphylococcus aureus [18]): Active; Partial Reduction In Inflammation | Activity (Cell membrane [26]): inactive
